# Data taken from patent US20090227540A1, “TREATMENT OF WOOD BASED ON NOVEL FORMULATIONS OF BORATRANES” (priority 2005, published 2009).
# Like-named read-outs stand apart in the source and are kept apart here.
# Assays:
# [1] = system: G. abietinum; settings: Humphrey et al; cited from earlier work
# [2] = system: P. tephropora; settings: Humphrey et al; cited from earlier work
# [3] = system: Tyromyces palustris; test: decay of treated, leached radiata pine blocks (AWPA protocol); assay type: cell-based
# Description: (§1) A more rigorous examination of the potential synergism of was carried out on leached wood blocks. Radiata pine blocks were cut to size (20×20×20 mm) and labeled according to treatment level. The blocks were then vacuum impregnated at
# (§2) −95 kpa with the various treatments as specified in table 16. The aqueous or alcoholic carrier solvents were then allowed to air dry for a period of 5 days. The blocks were then subjected to leaching and biological attack in accordance with the AWPA's “Proctocols for assessment of Wood Preservatives.” The fungal species used were Tyromyces palustris, Coniophora puteana and Fomitopsis lilacino-gilva.
# (§3) inhibition of growth by fungicide B at retention q. E is the expected additive inhibition of the two fungicides. If a greater inhibition occurs with the combined treatment than the two fungicides acting alone synergism is defined to be present.
# [4] = system: Coniophora puteana; test: as above; assay type: cell-based
# Description: as §1, §2, §3
# [5] = system: Fomitopsis lilacino-gilva; test: as above; assay type: cell-based
# Description: as §1, §2, §3
# [6] = system: Tyromyces palustris; test: malt agar plate growth inhibition, end point/MIC and Kull synergy; assay type: cell-based
# Description: (§4) To this end an alcoholic aqueous solutions of decyl boratrane and didecyldimethyl ammonium chloride were prepared separately and in combination in a ratio of 3:1 Serial dilutions of the formulations of the respective fungicides and fungicide mixture were added to 3 replicate plates of malt agar under aseptic conditions. Three replicate control plates without fungicide were similarly prepared.
# (§5) Onto each plate was placed 6 fungal inoculum squares measuring approximately 5×5 mm. […] The plates were then rated for growth inhibition and the results recorded.
# (§6) The absence or presence of synergism may be calculated by the method of F. C. Kull et al., Applied Microbiology, Vol 9, (1961) p 538 et seq. The synergistic index (S.I.) is calculated according to the following formula.
# (§7) In the present context the parameters in the formula have the following meaning:
# (§8) Qa=The concentration of compound decyl isopropanolamine boratrane (compound A) in mixture which produces and end point. Qb=The concentration of compound didecyldimethyl ammonium chloride (compound B) in mixture which produces and end point. QA=The concentration of compound decyl isopropanolamine boratrane (compound A) alone which produces and end point. QB=The concentration of compound didecyldimethyl ammonium chloride (compound B) alone which produces and end point. QC=The concentration of the mixture of didecyldimethyl ammonium chloride and decyl isopropanolamine boratrane (compounds A+B) which together produces and end point.
# (§9) If the synergistic index is above 1, this means that antagonism is present. If the synergistic index equals 1, this means that an additive effect of the two biocides exist. If the synergistic index is less than 1, this means that synergism of the two biocides exist.
# (§10) To this end an alcoholic aqueous solution of decyl boratrane and didecyldimethyl ammonium chloride was formulated in a ratio of 3:1. In a separate formulation a micro-emulsion of triadimefon was prepared. Serial dilutions of the formulations of the respective fungicides were added to 3 replicate plates of malt agar under aseptic conditions and tested for synergism under the same conditions as example 7 at ratios of 10:1 and 20:1 boratrane didecyldimethyl ammonium chloride mixture to 1 of triadimefon.
# (§11) The synergy experiment in Example 8 was repeated at two additional ratios of 5:1 and 50:1. The results are sumarised in tables 14 and 15.
# [7] = system: Pycnoporus coccineus; test: as above; assay type: cell-based
# Description: as §4, §5, §6, §7, §8, §9, §10, §11
# [8] = system: Antroda xantha; test: as above; assay type: cell-based
# Description: as §4, §5, §6, §7, §8, §9, §10, §11
# [9] = system: Trametes versicolor; test: as above; assay type: cell-based
# Description: as §4, §5, §6, §7, §8, §9, §10, §11
# [10] = system: Fomitopsis lilacino-gilva; test: as above; assay type: cell-based
# Description: as §4, §5, §6, §7, §8, §9, §10, §11
# [11] = cited from earlier work
# [12] = Ex 7, Table 5 prints no unit (ppm in Tables 1-4)
# [13] = Ex 8, A=DIPB DDAC 3:1, B=triadimefon
# [14] = Ex 9 repeat, A=DIPB DDAC 3:1, B=triadimefon
compound,measurement,setting,value
CCCC[N+](CCCC)(CCCC)CCCC.c1ccc2c(c1)CO[B-]1(OCc3ccccc3O1)O2,inhibition of the fungi,[1],complete inhibition
same,inhibition of the fungi,[2],complete inhibition
OB(O)O [Boric acid],Mass loss %,[3]; retention Boric acid 0.4% w,23.66%
same,Mass loss %,[3]; retention Boric acid 0.8% w,24.67%
same,Mass loss %,[4]; retention Boric acid 0.4% w,47.37%
same,Mass loss %,[4]; retention Boric acid 0.8% w,43.4%
same,Mass loss %,[5]; retention Boric acid 0.4% w,32.91%
same,Mass loss %,[5]; retention Boric acid 0.8% w,30.6%
"CCCCCCCCCC[N+](C)(C)CCCCCCCCCC.[Cl-] [DDAC, didecyldimethyl ammonium chloride]",MIC,[6],1020 µg/mL
same,"QB end point concentration, B alone","[6]; Ex 7, A=DIPB, B=DDAC",1024
same,"QB end point concentration, B alone","[7]; Ex 7, A=DIPB, B=DDAC",2048
same,MIC,[7]; [12],2048
same,MIC,[8],256 µg/mL
same,"QB end point concentration, B alone","[8]; Ex 7, A=DIPB, B=DDAC",256
same,"QB end point concentration, B alone","[9]; Ex 7, A=DIPB, B=DDAC",2048
same,MIC,[9]; Trametes versicolor,> 1020 µg/mL
same,MIC,[10],256 µg/mL
same,"QB end point concentration, B alone","[10]; Ex 7, A=DIPB, B=DDAC",256
"CCCCCCCCCCC1C[N+]23CC(C)O[B-]2(OC(C)C3)O1 (stereo not drawn) [DIPB, 3,7-dimethyl-10-decyl-2,8,9-trioxa-5-aza-1-boratricyclo-[3.3.3.0]-undecane]",MIC,[6]; Ex 7,1024 ppm
same,"QA end point concentration, A alone","[6]; Ex 7, A=DIPB, B=DDAC",1024
same,"QA end point concentration, A alone","[7]; Ex 7, A=DIPB, B=DDAC",256
same,MIC,[7]; [12],2048
same,MIC,[8]; Ex 7,256 ppm
same,"QA end point concentration, A alone","[8]; Ex 7, A=DIPB, B=DDAC",256
same,MIC,[9]; Ex 7,256 ppm
same,"QA end point concentration, A alone","[9]; Ex 7, A=DIPB, B=DDAC",2048
same,MIC,[10]; Ex 7,2048 ppm
same,"QA end point concentration, A alone","[10]; Ex 7, A=DIPB, B=DDAC",2048
same,rate of boron leaching,[11]; analysis of the lap joints each year,significantly lower than boric acid
same,efficacy compared to boric acid,[11]; weather exposed lap joints,superior efficacy
same,Mass loss %,[3]; retention 0.1% w b.a.e.,22.55%
same,Mass loss %,[3]; retention 0.2% w b.a.e.,26.55%
same,Mass loss %,[3]; retention 0.4% w b.a.e,21.33%
same,Mass loss %,[3]; retention 0.8% w b.a.e,0.86%
same,Mass loss %,[4]; retention 0.1% w b.a.e.,56.25%
same,Mass loss %,[4]; retention 0.2% w b.a.e.,47.62%
same,Mass loss %,[4]; retention 0.4% w b.a.e,27.93%
same,Mass loss %,[4]; retention 0.8% w b.a.e,4.64%
same,Mass loss %,[5]; retention 0.1% w b.a.e.,32.95%
same,Mass loss %,[5]; retention 0.2% w b.a.e.,34.58%
same,Mass loss %,[5]; retention 0.4% w b.a.e,10.09%
same,Mass loss %,[5]; retention 0.8% w b.a.e,0.29%
CC(C)(C)C(=O)C(Oc1ccc(Cl)cc1)n1cncn1 (stereo not drawn) [Triadimefon],"QB end point concentration, B alone",[6]; [13],32
same,MIC,"[6]; Ex 8, read-out: MIC",32 µg/mL
same,"QB end point concentration, B alone",[6]; [14],16
same,"QB end point concentration, B alone",[7]; [13],128
same,"QB end point concentration, B alone",[7]; [14],0.5
same,MIC,"[7]; Trametes coccinea, Ex 8, read-out: MIC",4 µg/mL
same,"QB end point concentration, B alone",[8]; [13],4
same,MIC,"[8]; Ex 8, read-out: MIC",4 µg/mL
same,"QB end point concentration, B alone",[8]; [14],4
same,"QB end point concentration, B alone",[9]; [13],4
same,"QB end point concentration, B alone",[9]; [14],4
same,MIC,"[9]; Trametes versicolor, Ex 8, read-out: MIC",128 µg/mL
same,"QB end point concentration, B alone",[10]; [13],4
same,MIC,"[10]; Ex 8, read-out: MIC",4 µg/mL
same,"QB end point concentration, B alone",[10]; [14],8
alkyldimethyl benzyl ammonium chloride [Benzalkonium Chloride 50%],Mass loss %,[3]; retention ADBAC 0.16% w,21.68%
same,Mass loss %,[3]; retention ADBAC 0.33% w,25.03%
same,Mass loss %,[3]; retention ADBAC 0.66% w,23.72%
same,Mass loss %,[3]; retention ADBAC 1.33% w,12.61%
same,Mass loss %,[4]; retention ADBAC 0.16% w,60.59%
same,Mass loss %,[4]; retention ADBAC 0.33% w,48.9%
same,Mass loss %,[4]; retention ADBAC 0.66% w,39.16%
same,Mass loss %,[4]; retention ADBAC 1.33% w,17.72%
same,Mass loss %,[5]; retention ADBAC 0.16% w,30.66%
same,Mass loss %,[5]; retention ADBAC 0.33% w,29.44%
same,Mass loss %,[5]; retention ADBAC 0.66% w,27.92%
same,Mass loss %,[5]; retention ADBAC 1.33% w,4.27%
